The values that follow come from patent US20090093669A1, “MAGNETOPHORESIS APPARATUS AND METHOD OF USE” (priority 2007, published 2009).

The format of series [1] is in vitro ADME, beef. From the text:
Each individual magnet had: • a residual induction value of at least 1,500 mT (magnetization of 1,200,000 amp/meter); • diameter of about 12.7 mm; and a • thickness of about 6.35 mm.
The magnets were arranged in an alternating polarity sequence on an iron flux ring (the iron flux ring is shaped like a washer). This positioning increased the field in the direction away from the flux ring. This arrangement is similar to the standard QuadraBloc® sold by Gradient Technologies, LLC. The magnetic field at the center of a North Pole of the magnets was about 530 mT. The array was placed over the drug such that the face of the magnets (away from the flux ring and towards the skin) covered the drug solution applied to the test material or skin. This configuration is described in U.S. applications Ser. No. 11/469,346 which is incorporated by reference herein.
The TENS unit used in the following experiments was set for 20 volts with a pulse rate of 100 Hz and a pulse width of 200 microseconds. Other usable settings will influence the results as the strength of the field is directly proportional to all of the variables and increasing any of the variables will drive the drug faster. The settings are important for treating underlying pain; however, when drugs are being applied at the same time as the TENS is being utilized to treat pain, it generally is not desirable to use the highest settings. […]
The test system used to determine the rates of dispersion in tissue was commercial homogenized beef tissue with various levels of lipids (fat) to cells compressed into 3 mm sheets. […] The beef tissue was purchased with selected levels of fat present in the samples as measured by the producer. […] The drug or formulation to be tested was placed on top of the tissue stack and then after a specified time the stack was separated and the individual 3 mm layers (bologna sheet/slice) were analyzed for the drug content. The drug migration was analyzed by extracting the tissue at the various depths with solvents and then quantifying the drug in that sample. […]

Setting [2] is: TENS electric field applied (20 volts, 100 Hz, 200 microseconds), fat free/low fat beef tissue.
Setting [3] is: magnetic field applied, fat free/low fat beef tissue.
[4] abbreviates: quadrapolar magnetic field applied (530 mT at surface), fat free/low fat beef tissue.
[5] abbreviates: control test, no applied field, fat free/low fat (lean) beef tissue, unit not given.

Where two headings read alike, the source gives them in different places.

`CCCCN1CCCCC1C(=O)Nc1c(C)cccc1C` (stereo not drawn) [bupivacaine]: where the note is “cattle”, the “enhancement of diffusion coefficient, TENS versus control” value (shortened to “enhancement … TENS versus control”) is listed as 6-8 times and the “enhancement of diffusion coefficient, magnetic field versus control” value (from here on “enhancement … magnetic field versus control”) is 4-5 times.
Regarding `COc1cc(CNC(=O)CCCC/C=C/C(C)C)ccc1O` [capsaicin], the “effect of TENS on the diffusion coefficient” value in series [1] is reported as “minimal effect”. Also, in series [1] (cattle, 0.075 %), the “diffusion coefficient in lipid containing tissue versus lean tissue” value is given as “about 8 times”. The “diffusion coefficient with magnets versus simple diffusion” value in series [1] (cattle, 0.075 %) amounted to 3 times. Besides, the “diffusion coefficient Dx” value reads like this: under setting [2], 0.30 mm^2/min; (cattle, 0.075 %) 0.02 mm^2/min; under setting [4], 0.09 mm^2/min. Further, the “depth of penetration (front)” value (TENS electric field, first 30 minutes, fat free tissue) was found to be 12 mm. Besides, for the setting “TENS electric field, 15 mm stack, fat free tissue”, the “time to totally penetrate the height of the stacks” value was 60 min. For the same molecule, for the setting “cattle”, the diffusion coefficient came to 0.02. In addition, for the setting “cattle”, the “enhancement … TENS versus control” value is on record as 15 times. Also, the “enhancement … magnetic field versus control” value under setting [3] worked out at 4.5 times. The depth of penetration was 7.5 mm (magnetic field, 30 minutes, fat free tissue); 15 mm (magnetic field, end of 240 minutes, total tissue system, fat free tissue); 8 mm (simple diffusion (control), 240 minutes, fat free tissue); 4.5 mm (simple diffusion (control), after 30 minutes, fat free tissue). Moreover, under “magnetic field, fat free sample”, the “rate of penetration, magnetic field versus control” value is listed as “doubled”.
Turning to `O=C(c1ccccc1)c1ccc2n1CCC2C(=O)O` (stereo not drawn) [ketorolac], where the note is “cattle”, the “enhancement … TENS versus control” value is 6-8 times and the “enhancement … magnetic field versus control” value is 4-5 times.
Regarding `CCN(CC)CC(=O)Nc1c(C)cccc1C` [lidocaine], the “diffusion coefficient Dx” value under setting [2] is 0.12 mm^2/min and the “diffusion coefficient Dx” value under setting [4] was 0.04 mm^2/min. In addition, under “TENS field applied, fat free/low fat beef tissue”, the “enhancement … TENS versus control” value was 4.4 times. Further, under setting [5], the diffusion coefficient came out at 0.027. In addition, under setting [3], the “enhancement … magnetic field versus control” value is given as “about 1.5 times”. The “increase in diffusion coefficient, magnets versus control” value (magnets applied, low fat beef tissue) is listed as 48%.
For insulin glargine, the “diffusion coefficient Dx” value under setting [2] is recorded as 0.008 mm^2/min and the “diffusion coefficient Dx” value under setting [4] was found to be 0.007 mm^2/min. Also, under setting [5], the diffusion coefficient came out at 0.002. The “enhancement … magnetic field versus control” value under setting [3] is “three and a half”.
